Assay results taken from ChEMBL document CHEMBL4007466, “Bioactive drimane sesquiterpenoids and aromatic glycosides from Cinnamosma fragrans” (Bioorg Med Chem Lett, 2017).

Tested on: MCF7
Assay: Antiproliferative activity against human MCF7 cells by SRB assay
Type: functional, cell-based

SMILES: C[C@@H]1O[C@@H](OC[C@H]2O[C@@H](OC(=O)[C@@]3(C)CCC[C@]4(C)C5=C(COC5=O)[C@@H](O)C[C@@H]34)[C@H](O)[C@@H](O)[C@@H]2O)[C@H](O)[C@H](O)[C@H]1O
- IC50: > 20 µM

SMILES: CC(=O)O[C@@H]1C=C([C@H]2O[C@@H]3OC(O)C4=C[C@@H](OC(C)=O)[C@H]5C(C)(C)CCC[C@]5(C)[C@]43O2)[C@](O)(C=O)[C@@]2(C)CCCC(C)(C)[C@H]12 (some centres undefined)
- IC50: 0.6 µM

SMILES: CC1=C(C=O)[C@@]2(C)CCCC(C)(C)[C@@H]2CC1=O
- IC50: > 20 µM

SMILES: CC[C@@]1(O)C(=O)OCc2c1cc1n(c2=O)Cc2cc3ccccc3nc2-1 [CAMPTOTHECIN]
- IC50: 0.03 µM

SMILES: CC1(C)CCC[C@]2(C)[C@@H](C=O)C(C=O)=CC[C@@H]12 [POLYGODIAL]
- IC50: 12.4 µM

SMILES: COc1cc(O[C@@H]2O[C@H](CO[C@@H]3OC[C@](O)(CO)[C@H]3O)[C@@H](O)[C@H](O)[C@H]2O)cc(OC)c1OC
- IC50: > 20 µM

SMILES: CC1(C)CCC[C@]2(C)[C@H]3COC(=O)C3=CC[C@@H]12 [CINNAMOLIDE]
- IC50: > 20 µM

SMILES: O=Cc1ccc(O[C@@H]2O[C@H](CO)[C@@H](O)[C@@H](O)[C@H]2O)cc1 [HELICIDE]
- IC50: > 20 µM

SMILES: Cc1ccc2c(c1)C(C(C)C)CCC2=O (centres undefined)
- IC50: > 20 µM

SMILES: CC(=O)O[C@@H]1C=C2C(=O)OC[C@]2(O)[C@@]2(C)CCCC(C)(C)[C@H]12 [CINNAMOSMOLIDE]
- IC50: 1.3 µM

SMILES: CC(=O)O[C@@H]1C=C2C(=O)O[C@@H]3O[C@H](C4=C[C@@H](OC(C)=O)[C@H]5C(C)(C)CCC[C@]5(C)C4=O)O[C@@]23[C@@]2(C)CCCC(C)(C)[C@H]12
- IC50: 3.7 µM

SMILES: CC(=O)O[C@@H]1C=C([C@H]2O[C@@H]3OC(=O)C4=C[C@@H](OC(C)=O)[C@H]5C(C)(C)CCC[C@]5(C)[C@]43O2)[C@](O)(C=O)[C@@]2(C)CCCC(C)(C)[C@H]12
- IC50: 2 µM

SMILES: CC(=O)O[C@@H]1C=C(C=O)[C@@](O)(C=O)[C@@]2(C)CCCC(C)(C)[C@H]12
- IC50: 1.6 µM

SMILES: COc1ccc(O[C@@H]2O[C@H](CO[C@@H]3OC[C@](O)(CO)[C@H]3O)[C@@H](O)[C@H](O)[C@H]2O)cc1OC
- IC50: > 20 µM
